Marks after values point to notes of the source that are not given here. Peptide text beside a SMILES is read from it. * marks the point of attachment. X74 = O=C1C=CC(=O)N1c1cccc(CCCCCCCCCCC(=O)*)c1; X61 = O=C1C=CC(=O)N1c1cccc(CCCC(=O)*)c1
Assays:
[1] = Half-lives and pharmacokinetic parameters of polypeptides vs HM-1; conditions: in vivo; for half-life: T1/2β (half-life)
splenic lymphocytes = test: Proliferation of splenic lymphocytes in mice (ConA, MTT); format: cell-based; conditions: ConA-stimulated mouse splenic lymphocytes, 48 h
Method in brief: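 Mouse splenocytes (5×10^6 cells/mL, RPMI 1640 with 10% calf serum, red cells lysed) stimulated with ConA plus varying polypeptide concentrations, with blank, ConA-only and Dex groups, 48 h at 37° C. MTT added for 4 h, formazan dissolved in DMSO, OD read at 570 nm; five replicates.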

adjuvant arthritis = test: Rat adjuvant arthritis (AA) animal model; format: in vivo, SD rats; conditions: 4.0 mg/kg; for Clinical score: intravenous in the tail once every five days from day 10, four paws scored 0-4, max 16, mean±SD; for Joint swelling degree / Left and right paw swelling degree: intravenous in the tail once every five days from day 10, mean±SD
[2] = tested on: carrageenan-induced toe swelling; test: Carrageenan-induced toe swelling in rats; format: in vivo; conditions: SD rats; for Swelling degree 1 h: 1 h after carrageenan; for Swelling degree 3 h: 3 h after carrageenan; for Swelling degree 5 h: 5 h after carrageenan; for Swelling degree 7 h: 7 h after carrageenan
Method in brief: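 Rats dosed by injection once daily for 3 d, controls given equal-volume saline. Right hind paw volume measured by water displacement to a marked joint line; swelling degree (mL) is paw volume after carrageenan inflammation minus volume before.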

[3] = tested on: human retinal capillary endothelial cells (HRCECs); test: MTT proliferation inhibition on HRCECs; format: cell-based; conditions: 48 h; for A570 nm-A630 nm: mean±SD
Method in brief: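 HRCECs seeded at 3.0×10^4 cells/mL, adhered overnight, then exposed to polypeptide for 48 h at 37 °C, 5% CO2. MTT added 4 h, formazan dissolved in DMSO, absorbance 570/630 nm; PIR (%) = 1 − treated/negative control, mean±SD of three independent runs.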

[4] = tested on: choroidal neovascularization; test: Choroidal neovascularization in rats (laser photocoagulation, FFA); format: in vivo; conditions: BN rats
Method in brief: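 Male BN rats aged 6-8 weeks were given 8 krypton-laser spots around the optic disc (647.1 nm, 350 mW, 50 μm, 0.05 s). Once the model was confirmed, groups of 5 got daily intravitreal compound at 0.05 μM or saline for 1 week. FFA followed at 3, 7, 14 and 28 days after dosing.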

[5] = day 3 after administration, total light spot number was 297, 0.05 μM in the vitreous chamber once a day for 1 week
[6] = day 7 after administration, total light spot number was 186, 0.05 μM in the vitreous chamber once a day for 1 week
[7] = day 14 after administration, total light spot number was 137, 0.05 μM in the vitreous chamber once a day for 1 week
[8] = day 28 after administration, total light spot number was 69, 0.05 μM in the vitreous chamber once a day for 1 week

SMILES: C[C@H](NC(=O)CNC(=O)[C@H](CCCNC(=N)N)NC(=O)CCCCCCCCCCc1cccc(N2C(=O)C=CC2=O)c1)C(=O)N[C@@H](CC(=O)O)C(=O)N[C@@H](CCCNC(=N)N)C(=O)N[C@@H](C)C(=O)NCC(=O)NCC(=O)NCC(=O)NCC(=O)N[C@@H](CCCNC(=N)N)C(=O)NCC(=O)N[C@@H](CC(=O)O)C(=O)O [X34] (X74-RGADRAGGGGRGD-OH)
- AUC(0-inf) [1]: 27700 ± 8150 ng·h/mL
- MRT inf [1]: 49.6 ± 10.2 h
- clearance [1]: 0.602 mL/min/kg
- half-life [1]: 34.35 ± 0.26 h
- A570 nm/A630 nm (splenic lymphocytes; polypeptide dose 0.05 μM): 0.5469 ± 0.0655
- Inhibition rate (%) (splenic lymphocytes; polypeptide dose 0.05 μM): 19.03%
- A570 nm/A630 nm (splenic lymphocytes; polypeptide dose 0.1 μM): 0.4573 ± 0.1104
- Inhibition rate (%) (splenic lymphocytes; polypeptide dose 0.1 μM): 32.29%
- A570 nm/A630 nm (splenic lymphocytes; polypeptide dose 0.2 μM): 0.4431 ± 0.1192
- Inhibition rate (%) (splenic lymphocytes; polypeptide dose 0.2 μM): 34.39%
- Clinical score (adjuvant arthritis): 5.66 ± 1.09
- Joint swelling degree (adjuvant arthritis): 0.83 ± 0.17 mm
- Left and right paw swelling degree (adjuvant arthritis): 3.84 ± 0.88 mm
- Swelling degree 1 h ([2]; 2.0 mg/kg once a day for 3 d): 0.26 ± 0.18 mg
- Swelling degree 3 h ([2]; 2.0 mg/kg once a day for 3 d): 0.38 ± 0.13 mg
- Swelling degree 5 h ([2]; 2.0 mg/kg once a day for 3 d): 0.39 ± 0.11 mg
- Swelling degree 7 h ([2]; 2.0 mg/kg once a day for 3 d): 0.35 ± 0.14 mg
- Swelling degree 1 h ([2]; 4.0 mg/kg once a day for 3 d): 0.22 ± 0.18 mg
- Swelling degree 3 h ([2]; 4.0 mg/kg once a day for 3 d): 0.38 ± 0.15 mg
- Swelling degree 5 h ([2]; 4.0 mg/kg once a day for 3 d): 0.36 ± 0.16 mg
- Swelling degree 7 h ([2]; 4.0 mg/kg once a day for 3 d): 0.34 ± 0.13 mg
- Inhibition rate (%) ([3]; dose 0.05 μM): 50.55%*
- A570 nm-A630 nm ([3]; dose 0.05 μM): 0.6536 ± 0.08102
- Inhibition rate (%) ([3]; dose 0.1 μM): 51.43%**
- A570 nm-A630 nm ([3]; dose 0.1 μM): 0.6420 ± 0.08726
- Inhibition rate (%) ([3]; dose 0.2 μM): 59.92%*
- A570 nm-A630 nm ([3]; dose 0.2 μM): 0.5298 ± 0.07541
- CNV Incidence (%) [4, 5]: 52.19%
- Leakage Light spot number [4, 5]: 155
- CNV Incidence (%) [4, 6]: 47.31%
- Leakage Light spot number [4, 6]: 88
- CNV Incidence (%) [4, 7]: 45.99%
- Leakage Light spot number [4, 7]: 63
- CNV Incidence (%) [4, 8]: 42.03%
- Leakage Light spot number [4, 8]: 29

SMILES: C[C@H](NC(=O)CNC(=O)[C@H](CCCNC(=N)N)NC(=O)CCCc1cccc(N2C(=O)C=CC2=O)c1)C(=O)N[C@@H](CC(=O)O)C(=O)N[C@@H](CCCNC(=N)N)C(=O)N[C@@H](C)C(=O)NCC(=O)NCC(=O)NCC(=O)NCC(=O)N[C@@H](CCCNC(=N)N)C(=O)NCC(=O)N[C@@H](CC(=O)O)C(=O)O [X27] (X61-RGADRAGGGGRGD-OH)
- AUC(0-inf) [1]: 26200 ± 7250 ng·h/mL
- MRT inf [1]: 46.9 ± 9.74 h
- clearance [1]: 0.635 mL/min/kg
- half-life [1]: 32.52 ± 0.25 h
- A570 nm/A630 nm (splenic lymphocytes; polypeptide dose 0.05 μM): 0.5388 ± 0.0643
- Inhibition rate (%) (splenic lymphocytes; polypeptide dose 0.05 μM): 20.23%
- A570 nm/A630 nm (splenic lymphocytes; polypeptide dose 0.1 μM): 0.5231 ± 0.0967
- Inhibition rate (%) (splenic lymphocytes; polypeptide dose 0.1 μM): 22.55%
- A570 nm/A630 nm (splenic lymphocytes; polypeptide dose 0.2 μM): 0.4792 ± 0.0849
- Inhibition rate (%) (splenic lymphocytes; polypeptide dose 0.2 μM): 29.08%
- Clinical score (adjuvant arthritis): 5.63 ± 1.12
- Joint swelling degree (adjuvant arthritis): 0.74 ± 0.17 mm
- Left and right paw swelling degree (adjuvant arthritis): 3.86 ± 0.85 mm
- Swelling degree 1 h ([2]; 2.0 mg/kg once a day for 3 d): 0.27 ± 0.13 mg
- Swelling degree 3 h ([2]; 2.0 mg/kg once a day for 3 d): 0.33 ± 0.14 mg
- Swelling degree 5 h ([2]; 2.0 mg/kg once a day for 3 d): 0.39 ± 0.17 mg
- Swelling degree 7 h ([2]; 2.0 mg/kg once a day for 3 d): 0.36 ± 0.16 mg
- Swelling degree 1 h ([2]; 4.0 mg/kg once a day for 3 d): 0.24 ± 0.12 mg
- Swelling degree 3 h ([2]; 4.0 mg/kg once a day for 3 d): 0.33 ± 0.16 mg
- Swelling degree 5 h ([2]; 4.0 mg/kg once a day for 3 d): 0.32 ± 0.17 mg
- Swelling degree 7 h ([2]; 4.0 mg/kg once a day for 3 d): 0.34 ± 0.14 mg
- Inhibition rate (%) ([3]; dose 0.05 μM): 49.84%*
- A570 nm-A630 nm ([3]; dose 0.05 μM): 0.6629 ± 0.02448
- Inhibition rate (%) ([3]; dose 0.1 μM): 56.47%**
- A570 nm-A630 nm ([3]; dose 0.1 μM): 0.5753 ± 0.02814
- Inhibition rate (%) ([3]; dose 0.2 μM): 56.64%*
- A570 nm-A630 nm ([3]; dose 0.2 μM): 0.5731 ± 0.04774
- CNV Incidence (%) [4, 5]: 54.88%
- Leakage Light spot number [4, 5]: 163
- CNV Incidence (%) [4, 6]: 46.24%
- Leakage Light spot number [4, 6]: 86
- CNV Incidence (%) [4, 7]: 42.34%
- Leakage Light spot number [4, 7]: 58
- CNV Incidence (%) [4, 8]: 36.23%
- Leakage Light spot number [4, 8]: 25
